Data set [1] relates to Leishmania infantum. As to the kind of experiment: Antiprotozoal activity against Leishmania infantum promastigotes measured after 5 days. The data set is classed as functional, organism-based. The following applies: 120 h.
Data set [2] relates to Leishmania infantum. Description: Antiprotozoal activity against Leishmania infantum amastigotes measured after 5 days. The following applies: 120 h. The data set is classed as functional, organism-based.
The test system of data set [3] is Trypanosoma brucei rhodesiense. Description: Antiprotozoal activity against Trypanosoma brucei rhodesiense STIB900 strain assessed as trypanocidal activity. It is filed as functional, organism-based.
Data set [4] in a line: Anticancer activity against rat Myoblast cells assessed as cell growth inhibition. The data set is classed as functional, cell-based.
A short description of data set [5]: Inhibition of TryR (unknown origin). The data set is classed as functional.
Data set [6] relates to Trypanosoma brucei rhodesiense. Description: Antiprotozoal activity against Trypanosoma brucei rhodesiense STIB900 strain. The data set is classed as functional, organism-based.
A further data set relates to L6. As to the kind of experiment: Anticancer activity against rat L6 cells assessed as cell growth inhibition. It is filed as functional, cell-based.
Data set [7] has as its system Trypanosoma brucei. Description: Antiprotozoal activity against Trypanosoma brucei infected in HepG2 cells. It is filed as functional, organism-based.
Data set [8] deals with Trypanosoma brucei brucei. As to the kind of experiment: Antiprotozoal activity against Trypanosoma brucei brucei Lab 110 EATRO strain. The data set is classed as functional, organism-based.
In data set [9] the test system is Leishmania donovani. Description: Antiprotozoal activity against Leishmania donovani promastigote measured after 72 hrs by LDH assay. The data set is classed as functional, organism-based.
Data set [10] in a line: Inhibition of Leishmania infantum TryS in presence of ATP by Malachite green staining based end-point assay.
Data set [11] has as its system Leishmania infantum. Description: Antiprotozoal activity against Leishmania infantum promastigotes. It is filed as functional, organism-based.
Data set [12] is described as follows: Inhibition of Trypanosoma brucei TryS.
The test system of data set [13] is Trypanosoma brucei. Description: Antiprotozoal activity against Trypanosoma brucei clone 427-221a. It is filed as functional, organism-based.
In the next data set the test system is HL-60. As to the kind of experiment: Anticancer activity against human HL-60 cells assessed as cell growth inhibition by trypan blue staining based assay. It is filed as functional.
For the next data set, the system named is Leishmania major. As to the kind of experiment: Antiprotozoal activity against Leishmania major amastigotes. It is filed as functional, organism-based.
Data set [14] in a line: Inhibition of Leishmania infantum His tagged TryS in presence of ATP by LDH/PK assay.
For data set [15], the system named is Leishmania infantum. As to the kind of experiment: Antiprotozoal activity against Leishmania infantum. It is filed as functional, organism-based.
Data set [16] in a line: Inhibition of Trypanosoma brucei His tagged TryS in presence of ATP by LDH/PK assay.
A further data set addresses Trypanothione synthetase (Crithidia fasciculata, UniProt O60993). Description: Inhibition of Crithidia fasciculata His tagged TryS in presence of ATP by LDH/PK assay.
Data set [17] is described as follows: Inhibition of Trypanosoma brucei MetRS in presence of ATP.
Data set [18] relates to Trypanosoma brucei. Description: Trypanocidal activity against Trypanosoma brucei trypomastigotes. It is filed as functional, organism-based.
Data set [19] is described as follows: Anticancer activity against human CRL-8155 cells assessed as cell growth inhibition. It is filed as functional, cell-based. The following applies: CRL8155.
The nature of data set [20]: Half life in BALB/c mouse plasma infected with Trypanosoma brucei 427 strain at 25 mg/kg/day, sc measured after 3 days. It is filed as ADME, organism-based. The following applies: time 3 day.
Data set [21] can be described thus: Inhibition of Trypanosoma brucei rhodesiense TryR.
Data set [22] is described as follows: Inhibition of Trypanosoma cruzi recombinant N-terminal His-tag TryS in presence of ATP.
Data set [23] is described as follows: Inhibition of Leishmania infantum recombinant N-terminal His-tag TryS in presence of ATP.
Data set [24] can be described thus: Inhibition of Trypanosoma brucei recombinant N-terminal His-tag TryS in presence of ATP.
The next data set deals with Trypanothione reductase (Trypanosoma brucei brucei, UniProt P39051). Description: Inhibition of Trypanosoma brucei TryR.
Data set [25] has as its system Trypanosoma brucei. Description: Trypanocidal activity against Trypanosoma brucei. The data set is classed as functional, organism-based.
For a further data set, the system named is Leishmania amazonensis. As to the kind of experiment: Antiprotozoal activity against Leishmania amazonensis PH8 strain […] assessed as […] at 10 ug/ml relative to control. It is filed as functional. The following applies: dose 10 µg/ml.
For a further data set, the system named is Leishmania braziliensis. As to the kind of experiment: Antiprotozoal activity against Leishmania braziliensis 2903 strain […] assessed as […] at 10 ug/ml relative to control. The data set is classed as functional. The following applies: dose 10 µg/ml.
Data set [26] relates to Leishmania donovani. Description: Antiprotozoal activity against Leishmania donovani PP75 strain […] assessed as […] at 10 ug/ml relative to control. The data set is classed as functional. The following applies: dose 10 µg/ml.
Data set [27] concerns Leishmania donovani. As to the kind of experiment: Antiprotozoal activity against Leishmania donovani LV9 strain amastigotes. The data set is classed as functional, organism-based.
Data set [28] has as its system Leishmania donovani. As to the kind of experiment: Antiprotozoal activity against Leishmania donovani promastigote at 10 uM relative to control. The data set is classed as functional.
A further data set has as its system Trypanosoma cruzi. As to the kind of experiment: Antiprotozoal activity against Trypanosoma cruzi amastigotes infected in mouse Peritoneal macrophage cells assessed as growth inhibition at 1.56 uM relative to control. It is filed as functional.

These results are taken from ChEMBL document CHEMBL5260817, “Polyamine-based analogs and conjugates as antikinetoplastid agents” (Eur J Med Chem, 2017).

pIC50: −log10 of the molar value. A value given as a limit tells only on which side of the number the result lay.

Trypanothione reductase, sequence (P39051 whole entry): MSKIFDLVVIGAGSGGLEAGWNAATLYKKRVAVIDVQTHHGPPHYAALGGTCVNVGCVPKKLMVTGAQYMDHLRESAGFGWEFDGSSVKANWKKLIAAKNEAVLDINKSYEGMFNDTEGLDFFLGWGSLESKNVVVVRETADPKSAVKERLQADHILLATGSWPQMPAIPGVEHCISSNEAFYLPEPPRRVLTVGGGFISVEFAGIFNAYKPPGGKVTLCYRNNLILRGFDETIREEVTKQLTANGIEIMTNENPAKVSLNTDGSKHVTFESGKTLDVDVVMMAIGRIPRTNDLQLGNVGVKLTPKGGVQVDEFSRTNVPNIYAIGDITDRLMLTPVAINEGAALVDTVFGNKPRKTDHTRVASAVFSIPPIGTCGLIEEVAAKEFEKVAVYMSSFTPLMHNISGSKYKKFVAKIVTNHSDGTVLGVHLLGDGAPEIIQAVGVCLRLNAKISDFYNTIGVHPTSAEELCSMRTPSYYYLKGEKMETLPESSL
Trypanothione synthetase, sequence (O60993 whole entry): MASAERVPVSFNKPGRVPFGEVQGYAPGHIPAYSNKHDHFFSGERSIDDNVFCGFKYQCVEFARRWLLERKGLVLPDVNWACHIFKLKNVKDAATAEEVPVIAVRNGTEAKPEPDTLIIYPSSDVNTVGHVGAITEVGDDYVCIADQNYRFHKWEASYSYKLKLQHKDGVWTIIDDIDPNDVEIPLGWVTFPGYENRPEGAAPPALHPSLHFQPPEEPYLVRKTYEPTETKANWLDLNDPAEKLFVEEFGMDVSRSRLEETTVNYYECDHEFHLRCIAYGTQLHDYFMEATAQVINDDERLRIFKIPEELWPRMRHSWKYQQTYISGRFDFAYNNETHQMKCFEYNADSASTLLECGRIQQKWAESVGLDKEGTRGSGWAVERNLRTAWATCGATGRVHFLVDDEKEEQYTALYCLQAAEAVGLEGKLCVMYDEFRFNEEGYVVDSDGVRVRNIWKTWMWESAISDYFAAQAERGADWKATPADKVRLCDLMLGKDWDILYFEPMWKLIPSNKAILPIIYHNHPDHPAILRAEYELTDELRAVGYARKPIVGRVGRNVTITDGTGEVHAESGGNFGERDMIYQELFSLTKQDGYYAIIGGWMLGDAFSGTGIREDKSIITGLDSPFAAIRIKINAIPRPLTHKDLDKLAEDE

`O=C1c2cccc3cccc(c23)C(=O)N1CCCNCCCCNCCCN1C(=O)c2cccc3cccc(c23)C1=O`: the pIC50 in the data set on Leishmania infantum [1] and in the data set with Leishmania infantum [2] was 6.00 in each case.

As to `CN(C)CCCNc1cc(Cl)ccc1Sc1ccc(C(F)(F)F)cc1`, the pIC50 in data set [3] is 5.92; in [4], 5.01.

As for `C[N+](C)(CCCNc1cc(Cl)ccc1Sc1ccccc1)Cc1ccc([N+](=O)[O-])o1`, the pIC50 in data set [5] was 5.05; in [6], 6.22; in the data set on L6, under 3.77.

With `COc1ccc(CNCCNCc2ccc(OC)cc2)cc1`, the pIC50 in the data set with Trypanosoma brucei [7] is at least 5.00.

In the case of `N=C(NC1CCCCCC1)c1ccc(N2CCN(c3ccc(C(=N)NC4CCCCCC4)cc3)CC2)cc1`, the negative-log IC50 (pIC50) in data set [8] was 7.74; in the data set with Leishmania donovani [9] it was 5.32.

On to `CNCCNC(=O)CN1C(=O)Cc2c([nH]c3ccc(C(F)(F)F)cc23)-c2ccccc21`, for which the pIC50 in data set [10] is 6.46; with Leishmania infantum [11], 3.95; in [12], 4.12.

For `COc1ccc2nc3cc(Cl)ccc3c(NCCCN(C)CCCNc3c4ccc(Cl)cc4nc4ccc(OC)cc34)c2c1`, the pIC50 is 9.00 in the data set on Trypanosoma brucei [13], 6.00 in the data set with HL-60 and 5.22 in the data set with Leishmania major.

For `CNCCNC(=O)CN1C(=O)Cc2c([nH]c3ccc(Br)cc23)-c2ccc(Cl)cc21`, the pIC50 in [14] was 6.82; with Leishmania infantum [15], 4.90; in data set [16], 4.23; on Trypanothione synthetase, 7.52.

`Oc1cc(NCCCNCc2cc(Cl)cc(Cl)c2)nc2ccccc12`: the pIC50 in data set [17] was 8.10; with Trypanosoma brucei [18], 8.40; in data set [19] it was under 4.70. Also, the half-life in data set [20] was 1 h.

For `C[N+](C)(CCCNc1cc(Cl)ccc1Sc1ccccc1)Cc1ccc(Cl)c(Cl)c1`, in data set [21], the pIC50 was 5.30.

For `CC(C)c1ccc(CNCCCCCCCCCCNCc2ccc(C(C)C)cc2)cc1`, the pIC50 in [22], in data set [23] and in [24] was 4.52 in each case.

For `Clc1ccc2c(c1)N(CCCN1CCN(CCCc3ccccc3)CC1)c1ccccc1S2`, the figures for the pIC50 against Trypanothione reductase and in the data set on Trypanosoma brucei [25] were 6.12 and 6.11, respectively.

As for `CCN(CC)CCCCCCNc1cc(OC)cc2c(C)ccnc12` [SITAMAQUINE], the Activity in the data set with Leishmania amazonensis, with Leishmania braziliensis and with Leishmania donovani [26] was 80% throughout. Further, the pIC50 in the data set with Leishmania donovani [27] is 5.40.

In the data set on Leishmania donovani [28], `COc1ccc2nc3cc(Cl)ccc3c(NCCCCCCCCNc3c4ccc(Cl)cc4nc4ccc(OC)cc34)c2c1` had an inhibition at 10 µM of 99%. Further, the inhibition at 1.56 µM with Trypanosoma cruzi came out at 70%.

Broadly, the pIC50 is the negative decadic logarithm of the IC50, by convention in mol/L. In general, half-life refers to the time needed for the level to fall by half in the phase considered. A high value points to slow loss. By inhibition is commonly meant the percentage by which the read-out fell short of the control.
